Like-named read-outs stand apart in the source and are kept apart here.
Target: T1, F508delCFTR (Homo sapiens, UniProt P13569, DEL508-508)
T1 construct: expressed in transfected cells; host or cells: CFBE41o- human lung-derived epithelial cells (CFBE4lo-F508delCFTR-HRP), doxycycline-inducible
Experiment: Cell Surface Expression-Horse Radish Peroxidase (CSE-HRP) Assay;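 for Maximum % activity (with co-corrector): co-corrector and positive control are both the same reference corrector at 2 µM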;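 for Maximum % activity (without co-corrector): percent of the 2 µM on-plate positive control corrector response above DMSO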
Format: cell-based
Settings: for Maximum % activity (with co-corrector) / Emax: maximum at any tested concentration, normalized to on-plate positive control; for Emax: read-out: Maximum % activity (without co-corrector)

[1] = test compound without co-corrector, read-out: EC50 (without co-corrector)
[2] = with co-corrector (2 μM of 3-[(2R,4R)-4-({[1-(2,2-difluoro-1,3-benzodioxol-5-yl)cyclopropyl]carbonyl}amino)-7-methoxy-3,4-dihydro-2H-chromen-2-yl]benzoic acid), read-out: EC50 (with co-corrector)
[3] = test compound without co-corrector
[4] = with co-corrector (2 μM of 3-[(2R,4R)-4-({[1-(2,2-difluoro-1,3-benzodioxol-5-yl)cyclopropyl]carbonyl}amino)-7-methoxy-3,4-dihydro-2H-chromen-2-yl]benzoic acid)

T1 sequence (P13569 with tags, fused parts or gaps DEL508-508): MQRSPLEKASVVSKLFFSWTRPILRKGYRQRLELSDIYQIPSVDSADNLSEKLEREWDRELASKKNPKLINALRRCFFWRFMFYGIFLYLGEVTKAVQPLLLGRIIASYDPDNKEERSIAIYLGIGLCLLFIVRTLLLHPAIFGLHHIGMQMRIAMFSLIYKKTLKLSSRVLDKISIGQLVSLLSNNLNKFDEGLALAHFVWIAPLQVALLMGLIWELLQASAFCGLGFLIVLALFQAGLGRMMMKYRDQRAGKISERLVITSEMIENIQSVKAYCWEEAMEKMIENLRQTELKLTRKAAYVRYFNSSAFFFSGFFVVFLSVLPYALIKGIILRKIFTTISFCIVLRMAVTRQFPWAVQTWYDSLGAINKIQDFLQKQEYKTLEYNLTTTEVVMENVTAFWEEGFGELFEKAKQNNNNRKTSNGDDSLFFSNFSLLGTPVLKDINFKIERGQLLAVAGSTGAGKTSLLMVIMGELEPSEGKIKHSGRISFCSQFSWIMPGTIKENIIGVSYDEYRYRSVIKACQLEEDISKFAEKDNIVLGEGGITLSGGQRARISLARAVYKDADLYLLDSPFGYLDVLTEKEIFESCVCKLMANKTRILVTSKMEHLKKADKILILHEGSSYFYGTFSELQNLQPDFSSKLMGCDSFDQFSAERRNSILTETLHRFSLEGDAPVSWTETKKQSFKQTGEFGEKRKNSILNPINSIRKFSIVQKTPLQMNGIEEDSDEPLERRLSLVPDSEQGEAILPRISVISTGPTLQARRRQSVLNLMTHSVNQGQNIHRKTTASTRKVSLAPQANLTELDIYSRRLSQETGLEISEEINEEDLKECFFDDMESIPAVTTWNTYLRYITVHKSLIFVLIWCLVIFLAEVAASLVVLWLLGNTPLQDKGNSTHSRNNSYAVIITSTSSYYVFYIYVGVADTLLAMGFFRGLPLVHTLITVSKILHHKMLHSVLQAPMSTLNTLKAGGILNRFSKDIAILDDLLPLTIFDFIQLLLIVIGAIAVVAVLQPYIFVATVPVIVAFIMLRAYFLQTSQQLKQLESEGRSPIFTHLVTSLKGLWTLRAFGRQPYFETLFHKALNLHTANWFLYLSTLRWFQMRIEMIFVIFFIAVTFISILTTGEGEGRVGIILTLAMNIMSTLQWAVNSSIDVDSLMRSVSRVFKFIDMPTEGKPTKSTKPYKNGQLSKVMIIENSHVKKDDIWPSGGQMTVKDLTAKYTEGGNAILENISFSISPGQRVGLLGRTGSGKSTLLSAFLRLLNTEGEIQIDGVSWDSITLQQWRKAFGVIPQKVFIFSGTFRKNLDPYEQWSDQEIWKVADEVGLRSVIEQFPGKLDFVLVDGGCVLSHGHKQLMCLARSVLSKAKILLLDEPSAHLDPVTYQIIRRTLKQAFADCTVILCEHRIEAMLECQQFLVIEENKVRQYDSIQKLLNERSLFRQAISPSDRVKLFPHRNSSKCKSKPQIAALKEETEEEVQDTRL

Structure (SMILES) | EC50 [1] | EC50 [2] | Maximum % activity (with co-corrector) (with co-corrector (2 μM)) | Emax (without co-corrector) | Emax [3] | Maximum % activity (with co-corrector) [4]
COc1cc(Cl)nc(N[C@@H]2[C@@H](C(C)(C)C)[C@H](C(=O)O)N(C(=O)C3CCCCC3)[C@@H]2c2ccccc2)n1 (racemic) [Example I-2] | 1000 to 10000 nM | 1000 to 10000 nM | +++ (≥350) | < 100% |  | 
COc1nc2ccccc2cc1CN[C@H]1[C@H](C(C)(C)C)[C@@H](C(=O)O)N(C(=O)OC(C)C)[C@H]1c1ccccc1C [II-579] | 1000 to 10000 nM | < 1000 nM |  |  | > 200% | +++ (≥350)
COc1nc(C2CCC2)ccc1CN[C@H]1[C@H](C(C)(C)C)[C@@H](C(=O)O)N(C(=O)OC(C)C)[C@H]1c1cccnc1N(C)C [II-548] | 1000 to 10000 nM | 1000 to 10000 nM |  |  | 100 to 200% | +++ (≥350)
COc1ncc(C2CCC2)cc1CN[C@@H]1[C@@H](C(C)(C)C)[C@H](C(=O)O)N(C(=O)[C@@H]2CCCO2)[C@@H]1c1ccccc1Cl [III-236] | 1000 to 10000 nM | 1000 to 10000 nM | ++ (≥150 and <350) |  | < 100% | 

From patent publication US20180099931A1 (AbbVie S.à.r.l., priority 2016, published 2018)
